Data taken from patent US11000587B2, “Use as immune enhancer or pharmaceutical composition for treatment of dementia, comprising phytosphingosine-1-phosphate or derivative thereof” (AXCESO BIOPHARMA CO., LTD., priority 2016, dated 2021).

What was measured:
Raw264.7 cells = assay: TNF-α production in LPS-stimulated macrophages (ELISA); format: cell-based, mouse; details: LPS 1 ng/mL; for Amount of TNF-α / inhibition at 0.01 µM / inhibition at 0.1 µM / inhibition at 0.5 µM / inhibition at 1 µM: 4 hours; for inhibition at 0.01 µM / inhibition at 0.1 µM / inhibition at 0.5 µM / inhibition at 1 µM: Mus musculus, RAW264.7, 4 h, read-out: Inhibition rate of TNF-α production
Protocol: Raw264.7 cells, which is a mouse macrophage cell line (Korean Cell Line Bank, cultured with RPMI 1640/10% fetal bovine serum) were seeded at 4.5×10^5/mL and cultured overnight, and then, treated with LPS (lipopolysaccharide) (1 ng/mL), and S1P and P1P diluted with a culture medium according to the concentrations ([…]). After culturing at 37° C. in a 5% CO2 incubator for 4 hours, the supernatant was collected and stored at 4° C. The concentration of TNF-α, an inflammatory cytokine secreted in the supernatant, was measured using an ELISA kit (BD OptEIA™ TNF Mouse set) according to the manufacturer's instructions. The culture medium was diluted by ¼ in all experimental groups except for the treated group, and the concentration was measured.

PC12 cell = assay: Protection against neuronal cell death induced by hydrogen peroxide (oxidative stress), Ez-Cytox viability; format: cell-based, Mouse; details: 100 nM, 350 μM hydrogen peroxide (about 90% of nerve cells killed without treatment)
Protocol: PC12 cell line (KCLB 21721, Korea Cell Line Bank, Seoul, Korea) was used to test the effect of P1P and the antibodies on the neuronal cell death caused by hydrogen peroxide and Aβ. The PC12 cells were cultured in RPMI 1640 medium containing 10% fetal bovine serum and 1% penicillin/streptomycin at 37° C. in a 5% CO2 incubator.
After culturing the cells for 24 hours, P1P, cyclic P1P and NAPS-1-P dissolved in DMSO to a concentration of 2 mM were diluted and added to the medium such that the concentrations were 10 nM, 100 nM and 1000 nM. After culturing for 1 hour, 350 μM of H2O2 was added to […] and cultured. Subsequently, in order to measure cell viability, the absorbance was measured at 450 nm using Ez-Cytox (Dogen) after 6 hours, and the efficacy of P1P and derivatives thereof against oxidative stress was measured. The cell death induced by Aβ was initiated by treating 10 μM of Aβ instead of 350 μM of hydrogen peroxide, and the efficacy of P1P and the antibodies against the cell death induced by Aβ was measured using Ez-Cytox after 24 hours.

Aβ antigen [1] = assay: Antibody-forming ability in vaccinated mice, total IgG titer (ELISA); format: in vivo, Balb/c mice; details: vaccine with Aβ antigen, intramuscular
Protocol: (§1) The mice were inoculated with the vaccines prepared as described above. 6-week-old Balb/c mice were used in the experiment, and there were 4 mice per group. The mice were injected intramuscularly with the vaccines prepared containing PBS, Alum, S1P (EB101), P1P, cyclic P1P, and NAPS-1-P as described above. […] The vaccine candidates were inoculated twice at an interval of 3 weeks. PBS was used as a negative control without Aβ antigen, and S1P and Alum were used as control. Alum is an adjuvant used in vaccines and is known to induce a Th2 immune response, and thus was used as a positive control for the Th2 response, and S1P was used as a control for comparison of antibody producing-ability.
The antibody-forming ability in the serum was determined as follows:
A 96-well plate was coated with Aβ antigen (1 μg/mL) and reacted at room temperature overnight. Then, the solution in each well was removed and blocked with albumin. The primary antibody (the immune serum) was subjected to 2-fold dilution with the following composition solution (0.014 M sodium phosphate, pH 7.4, 0.15 M NaCl, 0.6% albumin, 0.05% thimerosal) and added to each well. After reacting at room temperature for about 1 hour, the antibodies were washed 5 times with PBS containing 0.05% Tween 20. Subsequently, a secondary antibody conjugated to horseradish peroxidase (goat mouse IgG conjugated to horseradish peroxidase, Boehringer Mannheim) was added and reacted at room temperature for 1 hour. After washing 5 times with PBS containing Tween, 100 μL of 3,3,5,5-tetramethyl benzidine (from Pierce Chemicals) was added for color development, and reacted at room temperature for 15 minutes. The color development reaction was terminated by adding sulfuric acid.

Aβ antigen [2] = assay: IgG isotyping (IgG1, IgG2a, IgG2b titer) in vaccinated mice; format: in vivo, Balb/c mice; details: blood collected at 4th week after the second vaccination
Protocol: as §1
In the fourth week, which was the last week, about 300 to 400 μl of blood was collected from the heart, and the serum components were separated by centrifugation at 1400 rpm for 10 minutes at room temperature. The antibody-forming ability in the serum was determined as follows:
The IgG isotyping was measured in the same manner as the total IgG measurement except that the following antibodies were used as secondary antibodies. For IgG1, IgG2a and IgG2b, anti-mouse IgG1, IgG2a or IgG2b conjugated to horseradish peroxidase (Boehringer Mannheim) were used.

IL-4 = assay: Th2 cytokine (IL-4) from splenocytes of inoculated mice re-stimulated with Aβ antigen; format: in vivo; details: for IL-4: splenocytes of vaccinated mice, re-stimulated with Aβ antigen 72 hours
Protocol: as §1
(§2) The spleen was removed from the mice inoculated as described above to obtain splenocytes. Red blood cells were lysed with 100 mM Tris buffer. The obtained splenocytes were washed twice with PBS and centrifuged at 1600 rpm for 5 minutes. […] The splenocytes thus obtained were re-stimulated with a constant amount of Aβ antigen for 72 hours.
(§3) Subsequently, Th1 cytokine (TNF-α) and Th2 cytokine (IL-4) secreted from the mouse splenocytes were subjected to an ELISpot assay using an ELISPOT (BD Pharmingen) kit according to the manufacturer's instructions. The number of colored spots was measured to compare the number of cytokine-secreting cells.

TNF-α = assay: Th1 cytokine (TNF-α) from splenocytes of inoculated mice re-stimulated with Aβ antigen; format: in vivo; details: for TNF-α: splenocytes of vaccinated mice, re-stimulated with Aβ antigen 72 hours
Protocol: as §1, §2, §3

[3] = 2 weeks after secondary inoculation
[4] = 3 weeks after primary inoculation
[5] = 4 weeks after secondary inoculation

SMILES: CCCCCCCCCCCCCC[C@@H](O)[C@H]1OP(=O)(O)OC[C@@H]1N [CP1P, O-cyclic P1P]
- Amount of TNF-α (Raw264.7 cells; 10 nM): 10600 pg/mL
- Amount of TNF-α (Raw264.7 cells; 100 nM): 7800 pg/mL
- Amount of TNF-α (Raw264.7 cells; 500 nM): 7500 pg/mL
- Amount of TNF-α (Raw264.7 cells; 1000 nM): 7550 pg/mL
- inhibition at 0.01 µM (Raw264.7 cells; 10 nM): 26.3%
- inhibition at 0.1 µM (Raw264.7 cells; 100 nM): 26.3%
- inhibition at 0.5 µM (Raw264.7 cells; 500 nM): 47.9%
- inhibition at 1 µM (Raw264.7 cells; 1000 nM): 47.5%
- neuronal cell death induced by hydrogen peroxide (PC12 cell): the nerve cells were not killed
- Average Antibody Titer (Aβ antigen [1]; [3]): 11000 ± 2500
- Average Antibody Titer (Aβ antigen [1]; [4]): 140 ± 50
- Average Antibody Titer (Aβ antigen [1]; [5]): 9000 ± 2000
- Average Antibody Titer (Aβ antigen [1]; Before inoculation): 0
- IgG1 Average Antibody Titer (Aβ antigen [2]): 6100 ± 2100
- IgG2a Average Antibody Titer (Aβ antigen [2]): 0
- IgG2b Average Antibody Titer (Aβ antigen [2]): 0
- IL-4 (IL-4): 12.06 ± 1.25 pg/mL
- TNF-α (TNF-α): 42.9 ± 15.52 pg/mL

SMILES: CCCCCCCCCCCCCC[C@@H](O)[C@@H](O)[C@H](COP(=O)(O)O)NC(C)=O [NAPS-1-P, N-acetyl phytosphingosine-1-phosphate]
- Amount of TNF-α (Raw264.7 cells; 10 nM): 15000 pg/mL
- Amount of TNF-α (Raw264.7 cells; 100 nM): 15200 pg/mL
- Amount of TNF-α (Raw264.7 cells; 500 nM): 12200 pg/mL
- Amount of TNF-α (Raw264.7 cells; 1000 nM): 10000 pg/mL
- inhibition at 0.01 µM (Raw264.7 cells; 10 nM): -4.2%
- inhibition at 0.1 µM (Raw264.7 cells; 100 nM): -4.2%
- inhibition at 0.5 µM (Raw264.7 cells; 500 nM): 15.3%
- inhibition at 1 µM (Raw264.7 cells; 1000 nM): 30.6%
- neuronal cell death induced by hydrogen peroxide (PC12 cell): the nerve cells were not killed
- Average Antibody Titer (Aβ antigen [1]; [3]): 5600 ± 2000
- Average Antibody Titer (Aβ antigen [1]; [4]): 84 ± 50
- Average Antibody Titer (Aβ antigen [1]; [5]): 5600 ± 2000
- IgG1 Average Antibody Titer (Aβ antigen [2]): 1700 ± 600
- IgG2a Average Antibody Titer (Aβ antigen [2]): 0
- IgG2b Average Antibody Titer (Aβ antigen [2]): 0
- IL-4 (IL-4): 11.04 ± 0.78 pg/mL
- TNF-α (TNF-α): 40.4 ± 15.52 pg/mL

SMILES: CCCCCCCCCCCCC/C=C/[C@@H](O)[C@@H](N)COP(=O)(O)O [S1P, sphingosine-1-phosphate]
- secretion of TNF-α, trend with concentration (Raw264.7 cells): tended to decrease slightly in a concentration-dependent manner
- Amount of TNF-α (Raw264.7 cells; 10 nM): 15000 pg/mL
- Amount of TNF-α (Raw264.7 cells; 100 nM): 13880 pg/mL
- Amount of TNF-α (Raw264.7 cells; 500 nM): 12700 pg/mL
- Amount of TNF-α (Raw264.7 cells; 1000 nM): 116600 pg/mL
- inhibition at 0.01 µM (Raw264.7 cells; 10 nM): -4.2%
- inhibition at 0.1 µM (Raw264.7 cells; 100 nM): -4.2%
- inhibition at 0.5 µM (Raw264.7 cells; 500 nM): 11.8%
- inhibition at 1 µM (Raw264.7 cells; 1000 nM): ~19%
- Average Antibody Titer (Aβ antigen [1]; [3]): 4000 ± 1500
- Average Antibody Titer (Aβ antigen [1]; [4]): 140 ± 80
- Average Antibody Titer (Aβ antigen [1]; [5]): 4800 ± 2000
- Average Antibody Titer (Aβ antigen [1]; Before inoculation): 0
- IgG1 Average Antibody Titer (Aβ antigen [2]): 1200 ± 430
- IgG2a Average Antibody Titer (Aβ antigen [2]): 0
- IgG2b Average Antibody Titer (Aβ antigen [2]): 0
- increase in IL-4, statistical significance (IL-4; splenocytes of immunized mice): statistically significant increase
- IL-4 (IL-4): 11.84 ± 2.25 pg/mL
- increase in TNF-α, statistical significance (TNF-α; splenocytes of immunized mice): did not show a statistically significant increase
- TNF-α (TNF-α): 36.25 ± 20.15 pg/mL
